Measured values published in article PMC5458052 (Nature Communications, 2017).
Where “and” joins values, the source holds several entries; their conditions need not be identical. Equal entries are not always repeated.

What was measured:
[1] = system: P. falciparum strain 3D7A; experiment: In vitro parasite reduction ratio (PRR) assay; format: cell-based, Plasmodium falciparum
[2] = Mouse PK, compartmental analysis
P. berghei = experiment: Peters' standard 4-day suppressive test
[3] = Dog PK, compartmental analysis
[4] = system: Late stage gametocytes; oocysts in Anopheles stephensi mosquitoes; experiment: whole plant or invertebrate; format: cell-based
in vivo = settings: rat, iv, 1 mg/kg
CYP2D6 = CYP2D6 (Homo sapiens, UniProt P10635); experiment: Cytochrome P450 inhibition CYP2D6; format: in vitro ADME
Sequence of CYP2D6 (P10635 whole entry): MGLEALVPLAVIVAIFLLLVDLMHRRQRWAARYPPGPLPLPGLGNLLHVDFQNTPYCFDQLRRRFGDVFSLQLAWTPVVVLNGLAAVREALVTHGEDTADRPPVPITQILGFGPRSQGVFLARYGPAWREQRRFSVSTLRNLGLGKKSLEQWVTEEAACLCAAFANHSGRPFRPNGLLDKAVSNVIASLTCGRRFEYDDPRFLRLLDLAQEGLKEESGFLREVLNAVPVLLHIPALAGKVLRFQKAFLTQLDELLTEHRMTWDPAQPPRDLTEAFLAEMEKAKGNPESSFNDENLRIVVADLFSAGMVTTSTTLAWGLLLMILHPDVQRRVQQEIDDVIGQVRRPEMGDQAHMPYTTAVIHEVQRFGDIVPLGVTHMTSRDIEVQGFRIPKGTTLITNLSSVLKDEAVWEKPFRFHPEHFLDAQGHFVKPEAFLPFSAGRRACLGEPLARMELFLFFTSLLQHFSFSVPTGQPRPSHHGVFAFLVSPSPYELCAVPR

[5] = Human PK prediction by allometric scaling; settings: allometric scaling from rat parameters
[6] = Mammalian cell cytotoxicity; format: cell-based; settings: human; HeLa cells, n=3; read-out: cytotoxicity median IC50

For `FC1CCN(CCOc2ccc(C3CCC4(CC3)OOC3(OO4)C4CC5CC(C4)CC3C5)cc2)CC1` (stereo not drawn) [Compound E209], the Lag phase ([1]; 10 × IC50) was 0 h, the “Log PRR” value ([1]; 10 × IC50) was greater than 4.8 and the Slope ([1]; 10 × IC50) was −0.098. For the same molecule, the “PCT 99.9 %” value ([1]; 10 × IC50, parasite clearance time) was less than 24 h, the “Absorption rate constant Ka” value ([2]; PO 10 mg kg^−1) was 0.79 h⁻¹ and the bioavailability ([2]; female, Swiss Outbred, plasma, oral, 10 mg kg^−1) was 82%. For the same molecule, the clearance ([2]; female, Swiss Outbred, plasma, other: intravenous and oral, fitted together) was 71.7 mL/min/kg, the parasite clearance (P. berghei; given orally, 4-day suppressive test) was “complete parasite clearance” and the “estimated ED50” value (P. berghei; oral, after three doses, P. berghei infected mice) was 4 mg/kg. For the same molecule, the “Absorption rate constant Ka” value ([3]; PO 5 mg kg^−1) was 0.33 h⁻¹, the bioavailability ([3]; male, Beagle, plasma, oral, 5 mg kg^−1) was 40% and the clearance ([3]; male, Beagle, plasma, other: intravenous and oral, fitted together) was 18.3 mL/min/kg. For the same molecule, the “transmission-blocking activity (percentage of mosquitoes with no observed oocysts)” value [4] was ~60% and 90%, the IC50 ([4]; Anopheles stephensi, read-out: IC50 (reduction in oocyst mean intensity)) was 14.5 nM and the half-life (in vivo) was 4 h. For the same molecule, the IC50 (CYP2D6) was greater than 20000 nM, the “Absorption rate constant Ka” value [5] was 0.31 ^† h^−1 and the “Central clearance, CL” value [5] was 0.41 l^ h^−1 kg^−1. The “Inter-compartmental clearance 1, Q1” value [5] was 7.5 mL/min/kg, the “Inter-compartmental clearance 2, Q2” value [5] was 0.333 mL/min/kg and the IC50 [6] was 2850 nM.
